Results reported in US12485110B2, “Use of ergothioneine for extending lifespan or improving healthspan” (NANJING NUTRABUILDING BIO-TECH CO., LTD., priority 2022, dated 2025).
Entries after “also recorded” stand apart in the source; their conditions may differ.

Columns and labels:
C. elegans [1] = assay: Acute toxicity assay; format: in vivo
Experimental: Making culturing plates with ergothioneine: C. elegans is usually grown in the laboratory using E. coli as a food source. Nematode Growth Medium (NGM) plates have been prepared by aseptically pouring NGM agar into petri plates. Ergothioneine was dissolved in water to make a working solution of 0.5 M and then mixed with E. coli liquid culture before seeding on NGM agar plates. The seeding spots were dried slowly, allowing ergothioneine to diffuse into the food bacteria and the agar for at least 24 hours before worms are introduced. The indicated ergothioneine dosages (0, 640 nM, 3.2 μM, 16 μM, 80 μM, 400 μM, 2 mM, and 10 mM) are based on the total volume of the plates.
The acute toxicity assay tests toxicity in adult worms by simulating the actual conditions of the lifespan assay. […] Second, over time worm deaths are scored to rule out doses that will likely have a negative impact on lifespan despite lacking immediate toxicity. […] Adult worms were monitored in the days immediately following exposure for early lethality or any other obvious defects.
Worms were treated with either vehicle control or ergothioneine at doses spanning a range from […] to 10 mM on media identical to what would be used in the lifespan experiment. […] Worms were examined for immediate toxic effects and then scored intermittently for survival until the start of lifespan experiment in the next step (see example 2 below). […]

C. elegans [2] = assay: Lifespan assay (Automated Lifespan Machine); format: in vivo; conditions: for Maximum lifespan: 95th percentile of lifespans; for Median lifespan: N2 wild type, day 0 = day 1 of adulthood; for Mean lifespan: area under survival curve; for Lifespan / survival relative to vehicle control (in words): 5.0 mM (highest treatment group)
Text: N2 (Bristol) wild type strain has been used in this application.
To prevent chemical modification or metabolism of the test article by the food bacteria, worms were fed on a lawn of UV-killed bacteria (UV-i bacteria). An overnight culture of E. coli strain WP-2 was pelleted, washed, filtered, and irradiated. A suspension of UV-i bacteria was spotted on NGM agar containing Streptomycin to inhibit the growth of contaminating bacteria. The quantity and distribution of food bacteria were calibrated to ensure adequate access to food for the duration of assay while maintaining visibility of the worms.
The ALM used herein is based on the Caenorhabditis elegans lifespan machine published by Stroustrup et. al (Stroustrup, N. et al. The Caenorhabditis elegans Lifespan Machine. Nat Methods 10, 665-670 (2013)), with proprietary modifications to improve temperature stability and image acquisition. The scanner unit consists of a modified EPSON V850 and images are processed and analyzed using the ALM software (see id.). The machine time-of-death calls are trained and validated using the “storyboarding” feature of the ALM software.
The lifespan assay was designed and performed according to published and validated methods (Amrit, F. R. G., Ratnappan, R., Keith, S. A. & Ghazi, A. The C. elegans lifespan assay toolkit. Methods 68, 465-475 (2014)), using a modified version of the Automated Lifespan Machine (Stroustrup, N. et al. The Caenorhabditis elegans Lifespan Machine. Nat Methods 10, 665-670 (2013)). Worms were age synchronized by bleaching and eggs were plated directly onto NGM agar seeded with UV-i bacteria (Day 1, hatch). On Day 3, when the worms had reached the late L4 stage, they were transferred to dishes containing 100 μM 5-Fluorodeoxyuridine (FUdR) to suppress progeny. On day 5, the worms were washed off the dishes, and 30-50 worms were plated on each scanner dish. Plates were immobilized inverted on the bed of an Automated Lifespan Machine which scanned two images per hour of the plates continuously for the next 40 days.
Time of death calls exported from the ALM software was analyzed and plotted using the Lifelines software package developed by Cam Davidson-Pilon et. al (Lifelines Version: v0.25.9). Additional analysis performed using the OASIS2 analysis software (Seong Kyu Han et. al. OASIS 2: online application for survival analysis 2 with features for the analysis of maximal lifespan and healthspan in aging research. Oncotarget. 7:56147-56152. (2016)).
The lifespan assay was initiated by expanding all replicate groups to more than 1000 worms, then synchronizing by bleaching and allowing larval worms to hatch and arrest. To eliminate the effect of bacterial metabolism and growth on lifespan of C. elegans (wild type, and not over express β-amyloid peptide) worms, synchronized worms were only exposed to dead food bacteria. To suppress progeny, worms were transferred to media containing 5-Fluorodeoxyuridine (FUdR) within 54-60 hours post-plating. Worms were inspected 24 and 48 hours after this transfer to confirm infertility. Finally, the worms were inspected for general health and morphology before transferring to scanner plates. The scanner plates were incubated for an additional 2 days and inspected again before loading onto scanners.
To obtain high-resolution lifespan data and eliminate confounding factors such as worm handling and operator bias, lifespan data was collected using an Automated Lifespan Machine (ALM) (Stroustrup, N. et al. The Caenorhabditis elegans Lifespan Machine. Nat Methods 10, 665-670 (2013)). Three biological replicates, derived from synchronizing three independently maintained lines of N2 worms, were distributed across instruments. Images of the worms were then collected for the next 35 days with no interruption or manipulations. Some plates were excluded after quality checks, but plate number and worm count for all replicates exceeded the threshold for statistical significance (Table 1, row 1).

C[N+](C)(C)[C@@H](Cc1c[nH]c(=S)[nH]1)C(=O)[O-] [Ergo, Ergothioneine]
Early lethality (FIG. 3) (C. elegans [1]; 2 mM, upper end of the remaining doses): did not cause early lethality
Early lethality (FIG. 3) (C. elegans [1]; 10 mM, day 10 post treatment, L4 stage worms, 25° C.): showed an early lethality
Age in days at 25% mortality (C. elegans [2]; 0.1 mM): 17.97 days
Age in days at 50% mortality (C. elegans [2]; 0.1 mM): 24.16 days
Age in days at 75% mortality (C. elegans [2]; 0.1 mM): 28.15 days
Age in days at 90% mortality (C. elegans [2]; 0.1 mM): 30.83 days
Age in days at 100% mortality (C. elegans [2]; 0.1 mM): 39 days
Dose dependence of lifespan (Kaplan-Meier, FIG. 4A) (C. elegans [2]; 0.1 mM, 0.5 mM and 5.0 mM): dose-dependent increase in lifespan
Maximum lifespan (C. elegans [2]; 0.1 mM): 33.2 days
Median lifespan (C. elegans [2]; 0.1 mM): 24.2 days
Mean lifespan (C. elegans [2]; 0.1 mM): 23.4 days
Age in days at 25% mortality (C. elegans [2]; 0.5 mM): 18.05 days
Age in days at 50% mortality (C. elegans [2]; 0.5 mM): 24.22 days
Age in days at 75% mortality (C. elegans [2]; 0.5 mM): 28.37 days
Age in days at 90% mortality (C. elegans [2]; 0.5 mM): 30.84 days
Age in days at 100% mortality (C. elegans [2]; 0.5 mM): 37.26 days
Maximum lifespan (C. elegans [2]; 0.5 mM): 33.3 days
Median lifespan (C. elegans [2]; 0.5 mM): 24.2 days
Mean lifespan (C. elegans [2]; 0.5 mM): 23.5 days
Age in days at 25% mortality (C. elegans [2]; 5.0 mM): 21.04 days
Age in days at 50% mortality (C. elegans [2]; 5.0 mM): 25.92 days
Age in days at 75% mortality (C. elegans [2]; 5.0 mM): 29.73 days
Age in days at 90% mortality (C. elegans [2]; 5.0 mM): 32.05 days
Age in days at 100% mortality (C. elegans [2]; 5.0 mM): 38.81 days
Lifespan / survival relative to vehicle control (in words) (C. elegans [2]): higher survival than the vehicle control at all timepoints
Lifespan / survival relative to vehicle control (in words) (C. elegans [2]; listed as Ergothioneine): significant positive increase in lifespan; also recorded: statistically significant shift in survival
Lifespan increase compared with Resveratrol positive control (C. elegans [2]; 5.0 mM vs 0.1 mM Resveratrol, log-rank tests): similarly to, but slightly less than the Resveratrol positive control
Maximum lifespan (C. elegans [2]; 5.0 mM): 34.6 days
Median lifespan (C. elegans [2]; 5.0 mM): 25.9 days
Mean lifespan (C. elegans [2]; 5.0 mM): 25.3 days
